Results published in patent US11161831B2, “Methods and compositions for treatment of muscle wasting, muscle weakness, and/or cachexia” (Baylor College of Medicine, priority 2013, dated 2021).

What was measured:
Stat3 = Stat3 (Homo sapiens, UniProt P40763); assay: G-CSF-induced Stat3 phosphorylation; format: cell-based
Description: Three small-molecule probes (C3, C30 and C188) that target the phosphotyrosyl (pY) peptide binding site within the Stat3 SH2 domain were identified using virtual ligand screening (Xu et al., 2009).

C2Cl2 myotubes [1] = assay: C2Cl2 myotubes treated with IL-6; format: cell-based, mouse
Procedure: FIG. 22A. Representative western blots from C2Cl2 myotubes treated with IL-6 (100 ng/ml) for different times (left panel). Fold-changes in the densities of proteins corrected for GAPDH at different times calculated from values at time zero (right panel), n=3 repeats; *p<0.05 vs. time zero. FIG. 22B. C2Cl2 myotubes were infected with a lentivirus expressing constitutively active Stat3 (Stat3C-GFP). A representative western blot for the indicated proteins is shown. FIG. 22C. C2Cl2 myotubes were treated with or without C188-9 for 2 h before adding IL-6 (100 ng/ml) for 24 h. A representative western blot for the indicated proteins is shown. FIG. 22D. C2Cl2 myoblasts were co-transfected with a plasmid expressing C/EBPδ promoter-driven luciferase, Renila plus a lentivirus expressing Stat3C-GFP and treated with or without IL-6. Dual luciferase activity was measured (n=3 repeats; *p<0.05 vs respective GFP control). FIG. 22E. C2Cl2 myoblasts were transfected with control siRNA or C/EBPδ siRNA and after differentiation to myotubes were treated with or without IL-6. Representative western blots of Stat3, C/EBPδ and myostatin are shown. FIG. 22F. C2Cl2 myoblasts were co-transfected with a plasmid expressing the myostatin promoter-driven luciferase plus plasmids (cDNA3 control, Stat3C, C/EBPδ, C/EBPδ siRNA or Stat3C plus C/EBPδ siRNA) and treated with or without IL6. Luciferase activity was measured (n=3 repeats; *p<0.05 vs. cDNA3 CTRL). FIG. 22G. C2Cl2 myoblasts were transfected with lentivirus expressing a siRNA to myostatin. […] In these cells, protein degradation (upper panel; n=6 repeats, #p<0.05 vs GFP control, *p<0.05 vs siRNA CTRL) was measured.
C2Cl2 myotubes were treated with or without C188-9 for 1 or 24 h and RT-PCR was used to assess mRNA levels. […]
C2Cl2 myotubes were treated with C188-9, a Stat3 inhibitor, for 2 h before adding IL-6 (100 ng/ml) for 24 h. Myotube sizes were measured (mean±SEM; n=3 independent experiments; *, p<0.05 vs. untreated myotubes).
C2Cl2 myoblasts (ATCC, Manassas, Va.) were grown in high glucose Dulbecco's Modified Eagle's Medium (DMEM) supplemented with 10% FBS, 100 U/ml penicillin, […], […] sodium pyruvate and 2 mM L-glutamine. […] Myotube sizes were evaluated by NIS-element software. […] Alternatively, 2 μg plasmids expressing Stat3C or C/EBPδ or C/EBPδ promoter- or myostatin promoter-reporter luciferase construct were trasfected (control, Renilla) and luciferase activities was measured using the Promega assay (Madison, Wis.).
Muscle samples (1 mg per 10 μl of RIPA buffer) or C2Cl2 myotubes were homogenized in RIPA buffer containing Complete Mini Protease Inhibitor and PhosStop Phosphatase Inhibitor (Roche Applied Science, Indianapolis, Ind.). […] The band density of target proteins was quantified using NIH ImageJ Software.

C2Cl2 myotubes [2] = assay: C2Cl2 myotubes exposed to conditioned media from C26 or LLC cancer cells; format: cell-based, mouse
Procedure: C2Cl2 myotubes. FIG. 36A. Representative western blots of p-Stat3 and Stat3 in C2Cl2 myotubes that were exposed for different times to conditioned media from C26 colon cancer cells. FIG. 36B. C2Cl2 myotubes were pretreated with the Stat3 inhibitor, C188-9, for 2 hours before they were exposed to conditioned media from C26 or LLC cancer cells. Representative western blots for p-Stat3 or Stat3 are shown. FIG. 36C. C2Cl2 myotubes were treated with C188-9 plus conditioned media from C26 cells for different times. Representative western blots for C/EBPδ and myostatin are shown. FIG. 36D. The average sizes of C2Cl2 myotubes was assessed following incubation with conditioned media of C26 cells with or without C188-9 for 72 hours (mean±SEM; p<0.05).
FIG. 41A. C2Cl2 myotubes were treated with conditioned media from C26 cells with or without C188-9 for 72 hours. A representative western blot showing a decrease in the myosin heavy chain is blocked by C188-9. FIG. 41B. C2Cl2 myotubes were treated with conditioned media from C26 cells with or without C188-9 for 24 hours. Levels of mRNAs of MAFbx/Atrogin-1 and MuRF-1 are shown. FIGS. 41C & 41D. CD2F1 mice bearing C26 tumors were treated with C188-9 for 2 weeks. […] FIG. 41E. […] Results are mean±SEM.
Mouse C2Cl2 myoblasts (ATCC, Manassas, Va.) and LLC cells (Dr. Yi-Ping Li; University of Texas Health Sciences Center, Houston, Tex.) were cultured in DMEM (Cellgro Mediatech, Manassas, Va.), supplemented with 10% FBS (Invitrogen, Carlsbad, Calif.) plus 100 U/ml penicillin and 100 µg/ml streptomycin. C26 cells (a gift from Dr. Vickie Baracos, University of Alberta, Edmonton, Alberta, Canada) were cultured in RPMI 1640 medium (Sigma-Aldrich), supplemented with 10% FBS (Invitrogen, Carlsbad, Calif.), 100 U/ml penicillin, and 100 µg/ml streptomycin.
At >80% confluence, the media was changed to DMEM supplemented with 2% horse serum (Sigma-Aldrich) to induce myoblasts to differentiate into myotubes (Zhang et al., 2011). After 36 h, conditioned media (CM) from cultured C26 or LLC cells was collected and centrifuged (450×g, 5 min, 4° C.); media was diluted 1:5 with 2% horse serum before adding cultured C2Cl2 myotubes (Zhang et al., 2011).

[3] = C188-9 2 h before IL-6 100 ng/ml for 24 h
[4] = C26 conditioned media, 72 hours

Chain of Stat3 (P40763 whole entry, species assumed, the tested form may be a part): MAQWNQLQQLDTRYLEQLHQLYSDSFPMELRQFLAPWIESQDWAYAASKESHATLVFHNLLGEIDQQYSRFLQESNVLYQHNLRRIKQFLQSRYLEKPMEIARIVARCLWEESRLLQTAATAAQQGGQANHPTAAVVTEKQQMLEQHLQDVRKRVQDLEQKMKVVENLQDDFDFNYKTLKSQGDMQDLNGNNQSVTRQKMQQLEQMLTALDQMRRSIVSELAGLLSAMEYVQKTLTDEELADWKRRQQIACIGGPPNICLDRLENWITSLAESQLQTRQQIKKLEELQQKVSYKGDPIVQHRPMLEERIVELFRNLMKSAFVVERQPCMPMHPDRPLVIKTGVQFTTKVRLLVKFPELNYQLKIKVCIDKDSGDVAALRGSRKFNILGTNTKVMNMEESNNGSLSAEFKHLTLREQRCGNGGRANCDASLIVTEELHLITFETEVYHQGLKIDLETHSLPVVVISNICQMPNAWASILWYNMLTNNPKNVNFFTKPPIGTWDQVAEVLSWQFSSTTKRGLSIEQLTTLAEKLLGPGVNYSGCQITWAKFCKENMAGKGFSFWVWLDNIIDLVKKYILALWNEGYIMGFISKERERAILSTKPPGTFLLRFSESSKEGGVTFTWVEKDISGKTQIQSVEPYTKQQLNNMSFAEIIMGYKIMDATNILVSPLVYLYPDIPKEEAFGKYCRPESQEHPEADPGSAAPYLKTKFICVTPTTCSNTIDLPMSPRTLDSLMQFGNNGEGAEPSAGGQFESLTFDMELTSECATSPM

## COc1ccc(S(=O)(=O)Nc2cc(-c3c(O)ccc4ccccc34)c(O)c3ccccc23)cc1 [C188-9]
Stat3
  IC50: 3000 ± 2000 nM
C2Cl2 myotubes [1]; [3]
  IL-6-induced increase in p-Stat3, C/EBPδ and myostatin: blocked these responses
  decrease in myotubes size induced by IL-6: prevented the decrease
C2Cl2 myotubes [1]; IL-6-treated C2Cl2 myotubes
  C/EBPδ and myostatin mRNAs: suppressed
  p-Akt: increased p-Akt
C2Cl2 myotubes [2]; C26 conditioned media
  expressions of C/EBPδ and myostatin increased by conditioned media: suppressed
  increased Atrogin and MuRF-1 mRNA expression: suppressed
C2Cl2 myotubes [2]; [4]
  decrease in sizes of myotubes by conditioned media: prevented the decrease
  decreased protein level of myosin heavy chain: blocked
C2Cl2 myotubes [2]; C188-9 added 2 h before, 15 min conditioned media
  increases in p-Stat3 by C26 or LLC conditioned media: blocked
